Test results as given in paper PMC11050070, “Chemical Modifications to Enhance the Drug Properties of a VIP Receptor Antagonist (ANT) Peptide” (International Journal of Molecular Sciences, 2024).
Where no end group is shown, it is not given here.

Test: Plasma stability T cell activation study
Assay type: in vitro ADME
Details: 200 μM peptide mixed 1:1 with healthy donors' plasma, 37 °C, aliquots at 24, 48, 72, 96 hrs; read-out pooled human T cell activation at 10 μM; three donors' plasma; retained up to 96 h (longest time tested); Figure S1
Method: 1.3 Plasma Stability T Cell Activation Study
200 μM ANT308 or 200 μM ANT308K-PEG were mixed with healthy donors’ plasma at 1:1 ratio, followed by incubation at 37 °C. Aliquots (150 μL) were collected at 24 hrs, 48 hrs, 72 hrs, and 96 hrs and stored at -80 °C before pooled human T cells activation assay. Assays were performed with three different donor ’s plasma.
Activated T cells Activated T cells
Non-Activated T cells Non-Activated T cells […]
Diffe rentDonors’ plasma Diffe rentDonors’ plasma
Pre-incubation Time ( hrs) Pre-incubation Time ( hrs)
Figure S1A-F: Plasma stability and human T cells activation. After incubation with healthy donors’ plasma at 37 °C for 24hrs, 48hrs, 72hrs, and 96hrs. 10 μM ANT308 (A,C,E) or 10 μM ANT308K-PEG (B,D,F) were directly mixed with isolated & pooled human T cells with the […]

time of incubation in human plasma after which the ability to activate human T cells is retained: ≥ 96 h
Substance: KPRRPYTSDYTRLRKQMAVKKYLNLILN-NH2 [ANT308]
